Measurements published in patent publication US20130053430A1, “MODULATION OF CETP EXPRESSION” (Isis Pharmaceuticals, Inc., priority 2010, published 2013).
e = 2'-O-(2-methoxyethyl) (MOE); d = 2'-deoxy (DNA)

Experiments:
human CETP mRNA [1] = assay: Antisense inhibition of human CETP mRNA in SW872 liposarcoma cells (Example 1); format: cell-based; conditions: 150 nM antisense oligonucleotide, lipofectin, ~24 hours, relative to untreated control cells
Procedure, shortened: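 SW872 cells transfected (lipofectin) with 150 nM 5-10-5 MOE gapmer (phosphorothioate, 5-methylcytosine). After about 24 h, CETP mRNA measured by qRT-PCR, normalized to GAPDH; values are % inhibition versus untreated cells.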

[2] = Body and organ weights of huCETP transgenic mice (Example 5); format: in vivo; conditions: 50 mg/kg i.p. twice per week
Experimental: (§1) The mice were divided into five treatment groups. The first four groups received intraperitoneal injections of ISIS 349511, ISIS 349512, ISIS 349515, or ISIS 349517 at a dose of 50 mg/kg twice per week for 6 weeks. The fifth group received intraperitoneal injections of saline twice weekly for 6 weeks.
The body weights of the mice were measured pre-dose and regularly during the treatment period. The body weights are presented in Table 10, and are expressed in grams.

human CETP mRNA [3] = assay: Antisense inhibition of human CETP mRNA in primary hepatocytes from huCETP transgenic mice (Example 4); format: cell-based, mouse; conditions: cytofectin, ~24 hours
Procedure, shortened: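 Primary hepatocytes from human CETP transgenic mice, 17,500 cells/well, transfected by cytofectin with 100 nM or 200 nM antisense oligonucleotide. After about 24 h, CETP mRNA quantified by real-time PCR, normalised to GAPDH, as percent inhibition versus untreated cells.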

[4] = Plasma cholesterol and triglyceride levels in huCETP transgenic mice (Example 5); format: in vivo; conditions: 50 mg/kg i.p. twice per week; for HDL / LDL / Total cholesterol / Triglycerides / VLDL: plasma
Experimental: as §1
Plasma cholesterol were extracted at weeks 3 and 6 by the method of Bligh and Dyer (Bligh, E. G. and Dyer, W. J. Can. J. Biochem. Physiol. 37: 911-917, 1959) and measured with an Olympus clinical analyzer (Hitachi Olympus AU400e, Melville, N.Y.). HDL, LDL and VLDL cholesterol were individually measured by HPLC. Triglyceride levels were measured with the use of a commercially available triglyceride kit (DCL Triglyceride Reagent; Diagnostic Chemicals Ltd.). The results are presented in Tables 13 and 14 and are expressed in mg/dL. There was a significant increase in HDL levels in mice treated with ISIS oligonucleotides.

human CETP mRNA [5] = assay: Liver CETP mRNA in huCETP transgenic mice, normal chow (Example 5); format: in vivo; conditions: 50 mg/kg i.p. twice per week for 6 weeks, relative to PBS control
Experimental: Male huCETP transgenic mice were maintained on a 12-hour light/dark cycle and fed ad libitum normal Purina mouse chow. Animals were acclimated for at least 7 days in the research facility before initiation of the experiment. Antisense oligonucleotides (ASOs) were prepared in buffered saline (PBS) and sterilized by filtering through a 0.2 micron filter. Oligonucleotides were dissolved in 0.9% PBS for injection.
as §1
Twenty four hours after the final dose, the animals were sacrificed and liver tissue was isolated. Liver RNA was isolated for real-time PCR analysis of CETP. Two primer probe sets, hCETP (forward sequence […], designated herein as SEQ ID NO: 118; reverse sequence […], designated herein as SEQ ID NO: 119; probe sequence TGCGGACCGATGCCCCTGAX, designated herein as SEQ ID NO: 120) and hCETP2_LTS00182 (forward sequence […], designated herein as SEQ ID NO: 38; reverse sequence GGCTCACGCCTTTGCTGTT, designated herein as SEQ ID NO: 39: probe sequence CGGCTCGAGGTAGTGTTTACAGCCCTCX, designated herein as SEQ ID NO: 40), were used. These primer probe sets target the CETP mRNA transcript at different regions. As presented in Table 7, treatment with antisense oligonucleotides reduced CETP mRNA expression. The primer probe sets were used individually and collectively to measure CETP mRNA expression and gave similar results in all three cases. The RNA expression levels were normalized to murine Cyclophilin, a house-keeping gene, which is constitutively expressed. Cyclophilin levels were measured using the primer probe set described in Table 2. The results are expressed as percent inhibition of CETP mRNA, relative to the PBS control.

human CETP mRNA [6] = assay: Dose-dependent antisense inhibition of human CETP in SW872 liposarcoma cells (Example 2); format: cell-based; conditions: Lipofectin, ~16 hours (Example 2)
Experimental: Cells were plated at a density of 50,000 cells per well in a 24-well plate and transfected using Lipofectin reagent with 50 nM, 150 nM, and 300 nM concentrations of each antisense oligonucleotide. After approximately 16 hours, RNA was isolated from the cells and CETP mRNA levels were measured by quantitative real-time PCR. CETP mRNA levels were normalized to total RNA content, as measured by the house-keeping gene, GAPDH mRNA levels. Results are presented in Table 4 as percent inhibition of CETP, relative to untreated control cells.

CETP protein = assay: Plasma CETP protein by ELISA in huCETP transgenic mice (Example 5); format: in vivo, human; conditions: normal chow, 50 mg/kg i.p. twice per week for 6 weeks, compared to PBS control
Experimental: as §1
Plasma levels of CETP protein were measured by ELISA (Alpco, N.H.). […] The results are expressed as percentage inhibition compared to the PBS control.

[7] = Plasma glucose in huCETP transgenic mice (Example 5); format: in vivo; conditions: 50 mg/kg i.p. twice per week
Experimental: as §1
Plasma glucose values were determined using a Beckman Glucose Analyzer II (Beckman Coulter) by a glucose oxidase method (Lott, J. A. et al., Clin. Chem. 21: 1754-1760, 1975).

Substance | % inhibition (human CETP mRNA [1]) [%] | Body weights ([2]; Week 0) [grams] | Body weights ([2]; Week 1) [grams] | Body weights ([2]; Week 2) [grams] | Body weights ([2]; Week 4) [grams] | Body weights ([2]; week 6) [grams] | Organ weights, Kidney ([2]; week 6) [mg] | Organ weights, Liver ([2]; week 6) [g] | Organ weights, Spleen ([2]; week 6) [mg] | Percent inhibition of human CETP mRNA (human CETP mRNA [3]; 100 nM) [%] | Percent inhibition of human CETP mRNA (human CETP mRNA [3]; 200 nM) [%] | Percentage of HDL in total cholesterol ([4]; Week 3) [%] | Percentage of HDL in total cholesterol ([4]; week 6) [%] | HDL ([4]; week 3) [mg/dL] | LDL ([4]; week 3) [mg/dL] | Total cholesterol ([4]; week 3) [mg/dL] | Triglycerides ([4]; week 3) [mg/dL] | HDL ([4]; week 6) [mg/dL] | LDL ([4]; week 6) [mg/dL] | Total cholesterol ([4]; week 6) [mg/dL] | also measured
ISIS 349512: 5-10-5 MOE gapmer TTGCCTTCTGCTACAAGCCC (sugars from the 5' end e5 d10 e5, backbone and methylation of C not given here) | 92 | 19 | 21 | 24 | 26 | 28 | 333.8 | 2.1 | 86.8 | 86 | 96 | 74 | 74 | 62 | 14 | 85 | 100 | 100 | 31 | 134 | Triglycerides ([4]; week 6): 92 mg/dL; VLDL ([4]; week 6): 3 mg/dL; Percent inhibition of liver CETP mRNA expression, Combined primer probe sets (human CETP mRNA [5]): 95%; Percent inhibition of liver CETP mRNA expression, Primer probe set hCETP (human CETP mRNA [5]): 96%; Percent inhibition of liver CETP mRNA expression, Primer probe set hCETP2_LTS00182 (human CETP mRNA [5]): 94%; percent inhibition of CETP (human CETP mRNA [6]; 50 nM): 86%; percent inhibition of CETP (human CETP mRNA [6]; 150 nM): 98%; percent inhibition of CETP (human CETP mRNA [6]; 300 nM): 97%; Percent inhibition of plasma CETP protein levels (CETP protein): 76%; Glucose levels ([7]; week 3): 267 mg/dL; Glucose levels ([7]; week 6): 248 mg/dL
ISIS 349515: 5-10-5 MOE gapmer AACTTCCACCACGCTGGAGG (sugars from the 5' end e5 d10 e5, backbone and methylation of C not given here) | 53 | 25 | 26 | 27 | 28 | 28 | 349.5 | 1.7 | 89.3 | 94 | 94 | 68 | 75 | 60 | 19 | 89 | 83 | 66 | 18 | 87 | Triglycerides ([4]; week 6): 115 mg/dL; VLDL ([4]; week 6): 4 mg/dL; Percent inhibition of liver CETP mRNA expression, Combined primer probe sets (human CETP mRNA [5]): 57%; Percent inhibition of liver CETP mRNA expression, Primer probe set hCETP (human CETP mRNA [5]): 63%; Percent inhibition of liver CETP mRNA expression, Primer probe set hCETP2_LTS00182 (human CETP mRNA [5]): 52%; Percent inhibition of plasma CETP protein levels (CETP protein): 40%; Glucose levels ([7]; week 3): 275 mg/dL; Glucose levels ([7]; week 6): 237 mg/dL
